Data as given in ChEMBL document CHEMBL3098093, “Synthesis, modification and docking studies of 5-sulfonyl isatin derivatives as SARS-CoV 3C-like protease inhibitors” (Bioorg Med Chem, 2014).

Biological target: Replicase polyprotein 1ab (Severe acute respiratory syndrome-related coronavirus) (UniProt P0C6X7)
Assay: Inhibition of GST-tagged SARS coronavirus 3C-like protease at 1 mM by FRET assay

First: O=C1Nc2cc3c(cc2C1=O)CCC3
Second: O=C1Nc2ccc(Br)cc2C1=O
The inhibition of the first is lower: 79.4% for the first, 90.5% for the second.

Compared with `O=C1Nc2cccc(Br)c2C1=O`, `O=C1Nc2ccc(I)cc2C1=O` is higher in inhibition: 68.4% for the first, 86.7% for the second.

Compared with `O=C1Nc2ccc([N+](=O)[O-])cc2C1=O`, `O=C1Nc2ccc(Cl)cc2C1=O` is lower in inhibition: 94% for the first, 84.2% for the second.

First: CC(=O)c1ccc2c(c1)C(=O)C(=O)N2
Second: O=C1Nc2ccc(C(=O)O)cc2C1=O
The inhibition of the first is higher: 95.4% for the first, 44.8% for the second.

First: COc1ccc2c(c1)C(=O)C(=O)N2
Second: O=C1Nc2ccc(F)cc2C1=O
The inhibition of the first is higher: 95.3% for the first, 82.5% for the second.

For `CN1CCN(S(=O)(=O)c2ccc3c(c2)C(=O)C(=O)N3)CC1`, the inhibition was 98.6%.

Biological target: Replicase polyprotein 1ab (Severe acute respiratory syndrome-related coronavirus, UniProt P0C6X7)
Assay: Inhibition of GST-tagged SARS coronavirus 3C-like protease by FRET assay

First: O=C1Nc2ccc(S(=O)(=O)N3CCN(c4ccccn4)CC3)cc2C1=O
Second: CN1C(=O)C(=O)c2cc(S(=O)(=O)N3CCN(c4ccccn4)CC3)ccc21
The IC50 of the first is 9.3-fold higher: 51.3 µM for the first, 5.52 µM for the second.

Compared with `CN1CCN(S(=O)(=O)c2ccc3c(c2)C(=O)C(=O)N3Cc2ccccc2)CC1`, `CC1CCN(S(=O)(=O)c2ccc3c(c2)C(=O)C(=O)N3Cc2ccccc2)CC1` is 40-fold lower in IC50: 67.2 µM for the first, 1.69 µM for the second.

Going from `O=C1Nc2ccc(S(=O)(=O)N3CCN(CCc4ccccc4)CC3)cc2C1=O` to `CN1C(=O)C(=O)c2cc(S(=O)(=O)N3CCN(CCc4ccccc4)CC3)ccc21`, the IC50 falls from 34.9 µM to 13.9 µM (2.5-fold).

Compared with `CC1CCN(S(=O)(=O)c2ccc3c(c2)C(=O)C(=O)N3C)CC1`, `CN1CCN(S(=O)(=O)c2ccc3c(c2)C(=O)C(=O)N3C)CC1` is 11-fold higher in IC50: 1.04 µM for the first, 11.8 µM for the second.

`O=C1C(=O)N(Cc2ccccc2)c2ccc(S(=O)(=O)N3CCOCC3)cc21` and `O=C1C(=O)N(Cc2ccccc2)c2ccc(S(=O)(=O)N3CCCCC3)cc21` are within 1.5-fold of each other in IC50: 13.9 µM for the first, 14 µM for the second.

Going from `CC1CC(C)CN(S(=O)(=O)c2ccc3c(c2)C(=O)C(=O)N3Cc2ccccc2)C1` (stereo not drawn) to `CC1CC(C)CN(S(=O)(=O)c2ccc3c(c2)C(=O)C(=O)N3C)C1` (stereo not drawn), the IC50 falls from 4.7 µM to 2.82 µM (1.7-fold).

`O=C1Nc2ccc(S(=O)(=O)N3CCN(c4ccc(F)cc4)CC3)cc2C1=O` and `O=C1Nc2ccc(S(=O)(=O)N3CCN(c4cccc(C(F)(F)F)c4)CC3)cc2C1=O` cannot be ordered by IC50: > 100 µM for the first, > 100 µM for the second.

`CN1C(=O)C(=O)c2cc(S(=O)(=O)N3CCOCC3)ccc21` and `O=C1Nc2ccc(S(=O)(=O)N3CCOCC3)cc2C1=O` are within 1.5-fold of each other in IC50: 9.91 µM for the first, 12.7 µM for the second.

Going from `CC1CCN(S(=O)(=O)c2ccc3c(c2)C(=O)C(=O)N3Cc2ccc3ccccc3c2)CC1` to `CN1CCN(S(=O)(=O)c2ccc3c(c2)C(=O)C(=O)N3Cc2ccc3ccccc3c2)CC1`, the IC50 rises from 17.8 µM to 82.9 µM (4.7-fold). The first is the more potent here.

Compared with `CC1CCCCN1S(=O)(=O)c1ccc2c(c1)C(=O)C(=O)N2` (stereo not drawn), `CC1CCN(S(=O)(=O)c2ccc3c(c2)C(=O)C(=O)N3)CC1` is 1.9-fold lower in IC50: 2.25 µM for the first, 1.18 µM for the second. The second is the more potent here.

Going from `CC1CC(C)CN(S(=O)(=O)c2ccc3c(c2)C(=O)C(=O)N3)C1` (stereo not drawn) to `CN1CCN(S(=O)(=O)c2ccc3c(c2)C(=O)C(=O)N3)CC1`, the IC50 rises from 4.3 µM to 76.7 µM (18-fold).

Compared with `O=C1Nc2ccc(S(=O)(=O)N3CCCCC3)cc2C1=O`, `O=C1Nc2ccc(S(=O)(=O)N3CCN(C(=O)c4ccco4)CC3)cc2C1=O` is 2.3-fold higher in IC50: 4.45 µM for the first, 10.1 µM for the second.

`O=C1Nc2ccc(S(=O)(=O)N3CCN(Cc4cccc(Cl)c4)CC3)cc2C1=O` and `COc1cc(CN2CCN(S(=O)(=O)c3ccc4c(c3)C(=O)C(=O)N4)CC2)cc(OC)c1OC` are within 1.5-fold of each other in IC50: 31.7 µM for the first, 32.1 µM for the second.

With `O=C1C(=O)N(Cc2ccc3ccccc3c2)c2ccc(S(=O)(=O)N3CCOCC3)cc21` the IC50 was 39.9 µM.
